# From publication PMC8782923, “A Klotho-derived peptide protects against kidney fibrosis by targeting TGF-β signaling” (Nature Communications, 2022)
# Values joined by “and” are separate entries in the source; they are usually repeats but may differ in a detail not shown here. Equal entries are not always repeated.
# Key:
# [1] = test system: Smad2/3 phosphorylation in NRK-49F cells; test: TGF-β1-induced Smad2/3 phosphorylation in NRK-49F cells (Western blot); format: cell-based, rat; conditions: KP1 10 µg/ml (3 μM) or ITD-1 3 μM 1 h, TGF-β1 2 ng/ml 45 min, individual values, n = 3, P <0.001, 0.008 and <0.001, Fig. 3m
# Description: (§1) Normal rat kidney interstitial fibroblasts (NRK-49F) and human proximal tubular epithelial cells (HKC-8) were cultured at 37 °C. NRK-49F cells were serum-starved for 24 h and were pretreated with KP1 (10 µg/ml, 3 µM) for 1 h prior to incubation with TGF-β1 (#240-B; R&D Systems) at 2 ng/ml. Cells were collected at 45 min or 24 h after TGF-β1 treatment, respectively. Whole-cell lysates were prepared and subjected to Western blot analyses. For some experiments, cells were transiently transfected with expression vector human secreted Klotho (sKlotho) that only contains KL1 domain[48], by using Lipofectamine 2000 reagent (Invitrogen, Grand Island, NY) prior to treatment with TGF-β1.
# (§2) Western blot analysis was performed as previously described. […] Image J (v1.8.0) was used to quantify Western blot results.
# [2] = test system: ERK1/2, JNK and p38 phosphorylation in NRK-49F cells; test: TGF-β1-induced MAPK (ERK1/2, JNK, p38) phosphorylation in NRK-49F cells (Western blot); format: cell-based, rat; conditions: KP1 10 µg/ml (3 μM) or ITD-1 3 μM 1 h, TGF-β1 2 ng/ml 45 min, individual values, n = 3, P <0.001, <0.001 and <0.001, Fig. 3n
# Description: as §1, §2
# UUO mice = test: KP1 versus ITD-1 in UUO mice: renal TGF-β signaling and fibrosis proteins (Western blot); format: in vivo, mouse; design: renal p-Smad2 (Western blot) / renal p-Smad3 (Western blot) / renal p-p38 (Western blot) / renal p-JNK (Western blot) / renal collagen I (Western blot) / renal fibronectin (Western blot) / renal α-SMA (Western blot): unit not given here; conditions: KP1 1 mg/kg (0.31 μM/kg) or ITD-1 0.31 μM/kg, individual animals
# Description: (§3) Male BALB/c mice weighing 20–22 g were purchased from Beijing Vital River Laboratory Animal Technology Co. and housed in a standard environment which was characterized by 12 h light/dark cycle, 22–25 °C, and 40–60% humidity with free access to water and chow (catalog number: SWS9102). Mice have randomly divided into 3 groups: (i) sham controls; (ii) UIRI or UUO mice treated with vehicle; (iii) UIRI or UUO mice treated with KP1. A renal UIRI model was performed. Briefly, under general anesthesia, mice were made a midline abdominal incision, and the left kidney was clipped for 35 min by a vascular clamp. Mice were kept on the heating block at 37 °C during ischemia. The contralateral right kidney was removed on day 10 after ischemia–reperfusion. Mice were sacrificed 11 days after IRI. Blood and kidneys were collected for analysis. UUO model was established. Briefly, the left ureter of the lower pole of the kidney was obstructed by 3–0 surgical suture. KP1 peptide was dissolved in 0.01 M acetic acid and administrated intravenously via tail vein at concentration of 1 mg/day/kg (0.31 μM/day/kg) body weight for 6 days. For some experiments, ITD-1 (S6713, Selleck) was dissolved in PBS with 0.025% DMSO and 0.1% Tween 80 buffer and injected via tail vein at 0.31 μM/day/kg body weight. All animal studies were approved by the Laboratory Animal Ethics Committee of Nanfang Hospital, Southern Medical University.
# Western blot analysis was performed as previously described. The primary antibodies used were as follows: anti-fibronectin (dilution 1:10000; F3648; Sigma), anti-α-SMA (dilution 1:1000; ab7817; Abcam), anti-collagen-1 (dilution 1:1000; BM4017; Boster), anti-p-Smad3 (dilution 1:1000; #9520), anti-p-Smad2 (dilution 1:1000; #3104s), anti-p-ERK (dilution 1:1000; #9101s), anti-p-p38 (dilution 1:1000; #9211s), anti-p-JNK (dilution 1:1000; #9251s), anti-Smad2/3 (dilution 1:1000; #8685s), anti-JNK (dilution 1:1000; #9252), anti-ERK (dilution 1:1000; #4695), anti-p38 (dilution 1:1000; #8690; Cell Signaling Technology), anti-Klotho (dilution 1:1000; AF1819; R&D System), anti-TβR2 (dilution 1:1000; sc-7791; Santa Cruz), anti-TGF-β1 (dilution 1:1000; ab92486; Abcam), anti-GAPDH (dilution 1:5000; LK9002L; Sungene, Tianjin), anti-FITC (dilution 1:1000; PA1-26793; Invitrogen), anti-F4/80 (dilution 1:1000; 14-4801-82, eBioscience). The integration of all blots images was performed on Adobe Photoshop CS6. Graphpad Prism 8 was used to get statistics figures. Image J (v1.8.0) was used to quantify Western blot results. […]
# in vivo. UUO mice were treated with KP1 (1 mg/kg, 0.31 μM/kg) or ITD-1 (0.31 μM/kg). We stern blot analyses (a, b) and quantitative data of p-Smad2 (c), p-Smad3 (d), p-ERK1/2 (e), p-JNK (f) and p-p38 […]
# n=6 biologically independent animals. (h-k) Western blot analyses (h) and quantitative data of fibronectin (i), α-SMA (j) and Collagen Ⅰ (k) are shown. P values (from left to right): 0.001, 0.627, […]
# independent animals. Data are presented as mean values +/- SEM. Statistical significance was determined by one-way ANOVA followed by Dunnett’s T3 post hoc test.
# (1 picture or pasted object on this page, not shown here)
# UIRI mice = test: Blood calcium and phosphorus in UIRI mice; format: in vivo, mouse
# Description: as §3
# [3] = biological target: T1, TGF-β receptor 2 (TβR2), recombinant (Homo sapiens, UniProt P37173); test: SPR affinity measurement (Biacore T200); format: binding; conditions: 25 °C, 1:1 fit, KP1 0.78–25 μM, KP12 1.56–100 μM, representative of two independent experiments, read-out: ka
# T1 construct: purchased Sino Biological Inc., Beijing, China 10358-H03H-B
# Description: The SPR analyses were performed on a Biacore T200 apparatus (GE Healthcare, Uppsala Sweden) at 25 °C. Recombinant TGF-β receptor 2 protein (43.4 kDa, >95% as determined by SDS-PAGE) (10358-H03H-B; Sino Biological Inc., Beijing, China) diluted at 50 µg/ml in 10 mM acetate pH 4.0, was covalently immobilized on a CM5 sensor chip (GE Healthcare) using amine-coupling chemistry. Samples of KP1 (3.229 kDa, HPLC purity >95%) or KP12 (3.6 kDa, HPLC purity >95%) in PBS at various concentrations were injected at a flow rate of 60 μl/min. The injection time was set to 180 s, the dissociation time was set to 540 s, and 50 mM Gly-HCl (pH = 2.5) was used as the regeneration buffer. Data were fitted to a 1:1 binding model to obtain KD. All results presented were representative of double or triplicated injections in an interleaved manner. Two independent experiments were performed.
# T1 sequence (P37173 23-159 limits assumed): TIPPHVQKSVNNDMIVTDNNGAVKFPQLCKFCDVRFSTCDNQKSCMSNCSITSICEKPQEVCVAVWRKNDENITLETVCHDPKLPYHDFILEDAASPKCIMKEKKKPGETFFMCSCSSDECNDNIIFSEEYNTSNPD
SMILES,"p-Smad3 (quantitative Western blot), KP1 versus ITD-1 [1]","p-p38 (quantitative Western blot), KP1 versus ITD-1 [2]","renal collagen I (Western blot) (UUO mice; n = 6, P 0.001, 0.477, 0.001, Supplementary Fig. 5k)","renal fibronectin (Western blot) (UUO mice; n = 6, P 0.001, 0.627, <0.001, Supplementary Fig. 5i)","renal p-ERK1/2 (Western blot) (UUO mice; n = 6, P 0.004, 0.988, 0.002, Supplementary Fig. 5e)","renal α-SMA (Western blot) (UUO mice; n = 6, P 0.006, 0.497, 0.007, Supplementary Fig. 5j)","renal p-Smad3 (Western blot) (UUO mice; n = 6, P <0.001, 0.438, <0.001, Supplementary Fig. 5d)","renal p-JNK (Western blot) (UUO mice; n = 6, P <0.001, 0.758, <0.001, Supplementary Fig. 5f)","renal p-p38 (Western blot) (UUO mice; n = 6, P <0.001, 1.00, 0.001, Supplementary Fig. 5g)","renal p-Smad2 (Western blot) (UUO mice; n = 6, P <0.001, 1.00, <0.001, Supplementary Fig. 5c)","phosphorus (UIRI mice; UIRI mice + KP1, individual animals, n = 6, UIRI vs UIRI/KP1 P=0.220, Supplementary Table 2)","calcium (UIRI mice; UIRI mice + KP1, individual animals, n = 6, UIRI vs UIRI/KP1 P=0.798, Supplementary Table 2)",effect on blood phosphorus and calcium (in words) (UIRI mice; compared to the UIRI group),kon [3]
CCOC(=O)C1=C(C)NC2=C(C(=O)CC(C)(C)C2)C1c1ccc(-c2ccccc2)cc1 (centres unmarked) [ITD-1],2.756 and 2.347 and 1.188,2.793 and 1.62 and 1.25,6.627 and 4.346 and 7.91 and 8.759 and 4.669 and 8.535,9.72 and 9.315 and 3.815 and 3.805 and 3.523 and 5.024,11.5729 and 8.005 and 9.67 and 4.8 and 3.482 and 4.512,10.3176 and 15.77 and 12.2484 and 11.8776 and 11.4615 and 9.704,6.279 and 6.866 and 5.7731 and 6.57 and 6.136 and 7.119,4.803 and 6.567 and 5.7 and 7.786 and 5.264 and 7.2,5.956 and 6.507 and 4.878 and 4.538 and 5.819 and 6.755,18.8987 and 13.9891 and 9.419 and 10.7729 and 8.909 and 13.9004,–,–,–,–
CC(C)C[C@H](NC(=O)[C@H](Cc1ccccc1)NC(=O)CNC(=O)[C@H](CC(=O)O)NC(=O)[C@@H]1CCCN1C(=O)[C@H](Cc1ccccc1)NC(=O)[C@@H](NC(=O)CNC(=O)[C@H](CCC(N)=O)NC(=O)[C@@H](N)Cc1ccccc1)[C@@H](C)O)C(=O)N[C@@H](Cc1c[nH]c2ccccc12)C(=O)N[C@@H](C)C(=O)N[C@H](C(=O)NCC(=O)N[C@@H](CO)C(=O)N[C@@H](C)C(=O)N[C@@H](C)C(=O)N[C@@H](Cc1ccc(O)cc1)C(=O)N[C@@H](CCC(N)=O)C(=O)N[C@H](C(=O)N[C@@H](CCC(=O)O)C(=O)NCC(=O)NCC(=O)N[C@@H](Cc1c[nH]c2ccccc12)C(=O)N[C@@H](CCC(N)=O)C(=O)N[C@@H](CCC(N)=O)C(=O)N[C@@H](Cc1c[nH]cn1)C(=O)NCC(=O)N[C@@H](CCCCN)C(=O)NCC(=O)O)[C@@H](C)O)C(C)C [KP1],–,–,–,–,–,–,–,–,–,–,4.92 mmol/L and 5.73 mmol/L and 6.63 mmol/L and 4.9 mmol/L and 3.76 mmol/L and 4.04 mmol/L,2.71 mmol/L and 2.53 mmol/L and 2.54 mmol/L and 2.38 mmol/L and 2.93 mmol/L and 2.46 mmol/L,did not affect blood phosphorus and calcium level compared to the UIRI group,408 M⁻¹ s⁻¹
